From patent publication US20050137220A1 (Pharmacia Corporation, priority 2003, published 2005)
Where a name gives a salt, the structure may show the parent alone.

target: MK-2 (Homo sapiens, UniProt P49137); assay: Determination of MK-2 IC50 (phosphorylation of HSP-peptide, anion exchange resin capture assay); type: biochemical; settings: MK-2 Avg. IC50, additional values are replicate IC50 experiments; mixture of stereoisomers implied unless otherwise noted
Sequence (P49137 whole entry, species assumed): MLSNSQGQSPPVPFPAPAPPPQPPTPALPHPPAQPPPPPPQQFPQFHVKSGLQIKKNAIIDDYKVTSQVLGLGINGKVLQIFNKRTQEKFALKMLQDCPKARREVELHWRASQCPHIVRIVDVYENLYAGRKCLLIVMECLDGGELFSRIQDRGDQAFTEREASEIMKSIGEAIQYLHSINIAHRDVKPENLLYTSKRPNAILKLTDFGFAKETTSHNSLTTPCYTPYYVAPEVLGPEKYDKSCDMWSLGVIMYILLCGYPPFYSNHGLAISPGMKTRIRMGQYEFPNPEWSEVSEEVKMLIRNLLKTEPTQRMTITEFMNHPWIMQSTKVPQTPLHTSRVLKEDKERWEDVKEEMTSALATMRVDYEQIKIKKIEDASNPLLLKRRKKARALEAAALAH

Structure (SMILES) | IC50 [µM]
COc1ccc2[nH]c3c(c2c1)CCNC3=S [Example 97, 6-methoxy-2,3,4,9-tetrahydro-1H-beta-carboline-1-thione] | 34.8

same assay, conditions: additional values are replicate IC50 experiments; mixture of stereoisomers implied unless otherwise noted; read-out: MK-2 Avg. IC50

IC50 [µM] | Structure (SMILES)
> 200 | COC(=O)C1c2[nH]c3ccc(OC)cc3c2CCN1C(C)=O (stereo not drawn) [Example 232, methyl 2-acetyl-6-methoxy-2,3,4,9-tetrahydro-1H-beta-carboline-1-carboxylate]
175 | COc1ccc2[nH]c3c(c2c1)CCN1C(=O)NC(=O)C31 (stereo not shown) [Example 158, 8-methoxy-5,6,11,11b-tetrahydro-1H-imidazo[1′,5′:1,2]pyrido[3,4-b]indole-1,3(2H)-dione]
34.5 | CCOC(=O)c1cccc2c3c([nH]c12)CCNC3=O [Example 96, ethyl 1-oxo-2,3,4,5-tetrahydro-1H-pyrido[4,3-b]indole-6-carboxylate]
50.1 | CCOC(=O)c1ccc2c3c([nH]c2c1)CCNC3=O [Example 110, ethyl 1-oxo-2,3,4,5-tetrahydro-1H-pyrido[4,3-b]indole-7-carboxylate]
> 200 | COC(=O)C1c2[nH]c3ccc(OC)cc3c2CCN1CCCO[Si](C)(C)C(C)(C)C (stereo not drawn) [Example 181, methyl 2-(3-{[tert-butyl(dimethyl)silyl]oxy}propyl)-6-methoxy-2,3,4,9-tetrahydro-1H-beta-carboline-1-carboxylate]
> 200 | COc1cccc2c3c([nH]c12)C(C(=O)O)NCC3 (stereo not drawn) [Example 223, 8-methoxy-2,3,4,9-tetrahydro-1H-beta-carboline-1-carboxylic acid trifluoroacetate hydrate]
> 200 | Cc1ccc2[nH]c3c(c2c1)CCNC3=O [Example 254, 1h-Pyrido[3,4-B]Indol-1-One,2,3,4,9-Tetrahydro-6-Methyl-]
> 200 | COc1ccc2[nH]c3c(c2c1)CC(Cc1ccccc1)NC3C(=O)O (stereo not drawn) [Example 193, 3-benzyl-6-methoxy-2,3,4,9-tetrahydro-1H-beta-carboline-1-carboxylic acid]
35.5 | O=C(O)COc1ccc2[nH]c3c(c2c1)CCNC3C(=O)O (stereo not drawn) [Example 98, 6-(carboxymethoxy)-2,3,4,9-tetrahydro-1H-beta-carbolin-1-carboxylic acid]
> 200 | O=C1NCCc2c1[nH]c1c(Cl)cccc21 [Example 262, 1H-Pyrido[3,4-b]indol-1-one,8-chloro-2,3,4,9-tetrahydro- or 8-chloro-2,3,4,9-tetrahydro-1H-beta-carbolin-1-one]
> 200 | O=C(O)C1NCCc2c1[nH]c1ccc(OCc3ccccc3Cl)cc21 (stereo not drawn) [Example 196, 6-[(2-chlorobenzyl)oxy]-2,3,4,9-tetrahydro-1H-beta-carboline-1-carboxylic acid hydrochloride]
44.9 | CS(=O)(=O)c1ccc(COc2ccc3[nH]c4c(c3c2)CCNC4C(=O)O)cc1 (stereo not drawn) [Example 104, 6-{[4-(methylsulfonyl)benzyl]oxy}-2,3,4,9-tetrahydro-1H-beta-carboline-1-carboxylic acid hydrochloride]
68.7 | COc1ccc2[nH]c3c(c2c1)CC(CC#N)NC3=O (stereo not drawn) [Example 116, (6-methoxy-1-oxo-2,3,4,9-tetrahydro-1H-beta-carbolin-3-yl)acetontrile]
164 | CCOC(=O)CNC(=O)COc1ccc2[nH]c3c(c2c1)CCNC3C(=O)O (stereo not drawn) [Example 155, 6-[2-(2-ethoxy-2-oxoethylamino)-2-oxoethoxy]-2,3,4,9-tetrahydro-1H-beta-carboline-1-carboxylic acid hydrochloride]
> 200 | COc1ccc2[nH]c3c(c2c1)CCC(C)(C)C3=NO (mixture of isomers) [Example 272, 6-methoxy-2,2-dimethyl-2,3,4,9-tetrahydro-1H-carbazol-1-one oxime]
39.8 | COC(=O)c1cccc2c3c([nH]c12)CCCC3=O [Example 100, methyl 4-oxo-2,3,4,9-tetrahydro-1H-carbazole-8-carboxylate]
20.4 | COc1ccc2[nH]c3c(c2c1)CC(CCCO)NC3=O (stereo not drawn) [Example 81, 3-(3-hydroxypropyl)-6-methoxy-2,3,4,9-tetrahydro-1H-beta-carbolin-1-one]
> 200 | COc1ccc2[nH]c3c(c2c1)CCN(C(=O)OCc1ccccc1)C3C(=O)O (stereo not drawn) [Example 219, 2-[(benzyloxy)carbonyl]-6-methoxy-2,3,4,9-tetrahydro-1H-beta-carboline-1-carboxylic acid]
130 | COc1ccc(Oc2ccc3[nH]c4c(c3c2)CCC/C4=N\O)cc1 [Example 144, 6-(4-methoxyphenoxy)-2,3,4,9-tetrahydro-1H-carbazol-1-one oxime]

IC50 [µM] | Structure (SMILES)
> 200 | COc1ccc2[nH]c3c(c2c1)CCNC3(Cc1ccccc1)C(=O)O (stereo not drawn) [Example 241, 1-benzyl-6-methoxy-2,3,4,9-tetrahydro-1H-beta-carboline-1-carboxylic acid hydrochloride]
> 200 | O=C1NCCc2c1[nH]c1ccc([N+](=O)[O-])cc21 [Example 253, 6-nitro-2,3,4,9-tetrahydro-1H-beta-carbolin-1-one]
> 200 | O=C(O)C1NCCc2c1[nH]c1ccc(OCC3CCCCC3)cc21 (stereo not drawn) [Example 198, 6-(cyclohexylmethoxy)-2,3,4,9-tetrahydro-1H-beta-carboline-1-carboxylic acid]
> 200 | CC(C)(C)OC(=O)N1CCN(C(=O)c2cccc3[nH]c4c(c23)CCNC4=O)CC1 [Example 267, tert-butyl 4-[(1-oxo-2,3,4,9-tetrahydro-1H-beta-carbolin-5-yl)carbonyl]piperazine-1-carboxylate]
> 200 | COc1ccc2[nH]c3c(c2c1)CCNC3C(N)=O (stereo not drawn) [Example 220, 6-methoxy-2,3,4,9-tetrahydro-1H-beta-carboline-1-carboxamide]
> 200 | Cc1cccc2c3c([nH]c12)C(=O)NCC3 [Example 258, 1H-Pyrido[3,4-b]indol-1-one,2,3,4,9-tetrahydro-8-methyl- or 8-methyl-2,3,4,9-tetrahydro-1H-beta-carbolin-1-one]
53.7 | O=C(O)C1c2c(c3ccccc3n2Cc2ccccc2)CCN1Cc1cccc(C(F)(F)F)c1 (stereo not drawn) [Example 112, 1H-Pyrido[3,4-b]indole-1-carboxylic acid, 2,3,4,9-tetrahydro-9-(phenylmethyl)-2-[[3-(trifluoromethyl)phenyl]methyl]- or 9-benzyl-2-[3-(trifluoromethyl)benzyl]-2,3,4,9-tetrahydro-1H-beta-carboline-1-carboxylic acid]
> 200 | COC(=O)C1(CCl)NCCc2c1[nH]c1ccccc21 (stereo not drawn) [Example 164, methyl 1-(chloromethyl)-2,3,4,9-tetrahydro-1H-beta-carboline-1-carboxylate]
156 | ON=C1CCCc2c1[nH]c1ccc(C(F)(F)F)cc21 [Example 154, 6-(trifluoromethyl)-2,3,4,9-tetrahydro-1H-carbazol-1-one oxime]
> 200 | O=C1NCCc2c1[nH]c1cccc(C(=O)N3CCNCC3)c21 [Example 268, 5-(piperazin-1-ylcarbonyl)-2,3,4,9-tetrahydro-1H-beta-carbolin-1-one hydrochloride]
> 200 | COc1ccc2[nH]c3c(c2c1)CCNC3CC(=O)O (stereo not drawn) [Example 165, (6-methoxy-2,3,4,9-tetrahydro-1H-beta-carbolin-1-yl)acetic acid hydrochloride]
> 200 | COC(=O)C1(Cc2ccc(Cl)cc2)c2[nH]c3ccc(O)cc3c2CCN1C (stereo not drawn) [Example 173, methyl 1-[4-chlorobenzyl)-6-hydroxy-2-methyl-2,3,4,9-tetrahydro-1H-beta-carboline-1-carboxylate]
> 200 | COC(=O)C1Cc2c([nH]c3ccccc23)C(C(=O)O)N1 (stereo not drawn) [Example 227, 3-(methoxycarbonyl)-2,3,4,9-tetrahydro-1H-beta-carboline-1-carboxylic acid]
> 200 | COc1ccc2[nH]c3c(c2c1)C(Cc1ccc(OC(F)(F)F)cc1)CNC3C(=O)O (stereo not drawn) [Example 185, 6-methoxy-4-[4-(trifluoromethoxy)benzyl]-2,3,4,9-tetrahydro-1H-beta-carboline-1-carboxylic acid]
> 200 | COC(=O)C1c2[nH]c3ccc(OC)cc3c2CCN1C(=O)OC(C)(C)C (stereo not drawn) [Example 234, 2-tert-butyl 1-methyl 6-methoxy-1,3,4,9-tetrahydro-2H-beta-carboline-1,2-dicarboxylate]
> 200 | COc1ccc2[nH]c3c(c2c1)CCNC3C(=O)NCC(=O)O (stereo not drawn) [Example 229, N-[(6-methoxy-2,3,4,9-tetrahydro-1H-beta-carbolin-1-yl)carbonyl]glycine hydrochloride hydrate]
> 200 | COC(=O)c1ccc2[nH]c3c(c2c1)CCNC3=O [Example 270, methyl 1-oxo-2,3,4,9-tetrahydro-1H-beta-carboline-6-carboxylate]
> 200 | O=C1NCCc2c1[nH]c1c(Br)cc3c(c21)OCCO3 [Example 256, 6-bromo-2,3,7,9,10,11-hexahydro-8H-[1,4]dioxino[2,3-e]pyrido[3,4-b]indol-8-one]

Structure (SMILES) | IC50 [µM]
COCCOc1ccc2[nH]c3c(c2c1)CCNC3C(=O)O (stereo not drawn) [Example 135, 6-(2-methoxyethoxy)-2,3,4,9-tetrahydro-1H-beta-carboline-1-carboxylic acid] | 110
CCOC(=O)C1(C(=O)OCC)NCCc2c1[nH]c1ccc(OC)cc21 [Example 171, diethyl 6-methoxy-2,3,4,9-tetrahydro-1H-beta-carboline-1,1-dicarboxylate] | > 200
COC(=O)C1c2[nH]c3ccc(OC)cc3c2CCN1Cc1ccccc1 (stereo not drawn) [Example 168, methyl 2-benzyl-6-methoxy-2,3,4,9-tetrahydro-1H-beta-carboline-1-carboxylate] | > 200
C=CCN1CCc2c([nH]c3ccc(OC)cc23)C1C(=O)OC (stereo not drawn) [Example 225, methyl 2-allyl-6-methoxy-2,3,4,9-tetrahydro-1H-beta-carboline-1-carboxylate] | > 200
CCOC(=O)CCCOc1ccc2[nH]c3c(c2c1)CCNC3C(=O)O (stereo not drawn) [Example 130, 6-(4-ethoxy-4-oxobutoxy)-2,3,4,9-tetrahydro-1H-beta-carboline-1-carboxylic acid hydrochloride] | 100
